Source: patent US6472416B1, “Sulfonylphenylpyrazole compounds useful as COX-2 inhibitors” (Abbott Laboratories, priority 1999, dated 2002)

Row | SMILES | melting point [°C]
1 | Cc1c(-c2cccc(C(F)(F)F)c2)oc2c(-c3ccc(F)cc3)c(-c3ccc(S(C)(=O)=O)cc3)nn12 [Example 46, 6-(4-(Methylsulphonyl)phenyl)-7-(4-fluorophenyl)-3-methyl-2-[3-(trifluoromethyl)phenyl]pyrazolo[5,1-b][1,3]oxazole] | 194 to 195
2 | CS(=O)(=O)c1ccc(-c2nn3c4c(oc3c2-c2ccc(F)cc2)COCC4)cc1 [Example 52, 3-(4-Fluorophenyl)-2-(4-methylsulfonylphenyl)-7,8-dihydro-5H-pyrazolo[5,1-b]pyrano[4,3-d][1,3]oxazole] | 200 to 201
3 | CC(C)n1nc(OCC(=O)c2ccc(F)cc2)c(-c2ccc(F)cc2)c1-c1ccc(S(C)(=O)=O)cc1 [Example 19, 2-{[4-(4-Fluorophenyl)-5-(4-(methylsulphonyl)phenyl)-1-isopropyl-1H-pyrazol-3-yl]oxy}-1-(4-fluorophenyl)ethan-1-one] | 184 to 185
4 | CCc1coc2c(-c3ccc(F)cc3)c(-c3ccc(S(N)(=O)=O)cc3)nn12 [Example 62, 6-(4-(aminosulphonyl)phenyl)-3-Ethyl-7-(4-fluorophenyl)pyrazolo[5,1-b][1,3]oxazole] | 234 to 236
5 | CS(=O)(=O)c1ccc(-c2nn3c(c2-c2ccc(F)cc2)OCCC3)cc1 [Example 1, 3-(4-Fluorophenyl)-2-(4-(methylsulphonyl)phenyl)-6,7-dihydro-5H-pyrazolo[5,1-b][1,3]oxazine] | 198 to 200
6 | CS(=O)(=O)c1ccc(-c2c(-c3ccc(F)cc3)nn3c(-c4ccc(F)cc4)coc23)cc1 [Example 73, 3,6-Bis(4-fluorophenyl)-7-(4-methylsulfonylphenyl)pyrazolo[5,1-b][1,3]oxazole] | 289 to 291
7 | CC=CC(=O)c1oc2c(-c3ccc(F)cc3)c(-c3ccc(S(C)(=O)=O)cc3)nn2c1C [Example 58, 1-[7-(4-Fluorophenyl)-3-methyl-6-(4-(methylsulphonyl)phenyl)pyrazolo[5,1-b][1,3]oxazol-2-yl]but-2-en-1-one] | 197 to 199
8 | CS(=O)(=O)c1ccc(-c2nn3c(-c4ccccc4)c(-c4ccccc4)oc3c2-c2ccc(F)cc2)cc1 [Example 38, 7-(4-Fluorophenyl)-6-(4-(methylsulphonyl)phenyl)-2,3-diphenylpyrazolo[5,1-b][1,3]oxazole] | 228 to 229
9 | CC(C)(C)C(=O)COc1nn(CC#N)c(-c2ccc(S(C)(=O)=O)cc2)c1-c1ccc(F)cc1 [Example 28, 2-[3-(3,3-Dimethyl-2-oxobutoxy)-4-(4-fluorophenyl)-5-(4-(methylsulphonyl)phenyl)-1H-pyrazol-1-yl]acetonitrile] | 156 to 159
10 | CS(=O)(=O)c1ccc(-c2nn3c(C(F)(F)F)coc3c2-c2ccc(F)cc2)cc1 [Example 50, 7-(4-Fluorophenyl)-6-(4-(methylsulphonyl)phenyl)-3-(trifluoromethyl)pyrazolo[5,1-b][1,3]oxazole] | 186 to 189
11 | CCOC(=O)c1oc2c(-c3ccc(F)cc3)c(-c3ccc(S(C)(=O)=O)cc3)nn2c1C [Example 51, Ethyl 7-(4-Fluorophenyl)-6-(4-methylsulfonylphenyl)-3-methylpyrazolo[5,1-b][1,3]oxazole-2-carboxylate] | 203 to 204
12 | CCn1nc(OCC(=O)C(C)(C)C)c(-c2ccc(S(C)(=O)=O)cc2)c1-c1ccc(F)cc1 [Example 78, 1-[(1-Ethyl-5-(4-fluorophenyl)-4-(4-(methylsulphonyl)phenyl)-1H-pyrazol-3-yl)oxy]-3,3-dimethylbutan-2-one] | 63 to 66
13 | CCc1coc2c(-c3ccc(F)cc3)c(-c3ccc(S(C)(=O)=O)cc3)nn12 [Example 61, 3-Ethyl-7-(4-fluorophenyl)-6-(4-(methylsulphonyl)phenyl)pyrazolo[5,1-b][1,3]oxazole] | 177 to 179
14 | Cc1oc2c(-c3ccc(F)cc3)c(-c3ccc(S(C)(=O)=O)cc3)nn2c1C [Example 48, 7-(4-Fluorophenyl)-6-(4-methylsulfonylphenyl)-2,3-dimethylpyrazolo[5,1-b][1,3]oxazole] | 158 to 160
15 | CS(=O)(=O)c1ccc(-c2nn3c(C4C5CC6CC(C5)CC4C6)coc3c2-c2ccc(F)cc2)cc1 (stereo not shown) [Example 39, 3-(2-Adamantyl)-7-(4-fluorophenyl)-6-(4-(methylsulphonyl)phenyl)pyrazolo[5,1-b][1,3]oxazole] | 128 to 131
16 | Cc1c(-c2ccc(F)cc2)oc2c(-c3ccc(F)cc3)c(-c3ccc(S(C)(=O)=O)cc3)nn12 [Example 43, 2,7-Bis(4-fluorophenyl)-3-methyl-6-(4-(methylsulphonyl)phenyl)pyrazolo[5,1-b][1,3]oxazole] | 257 to 259
17 | CCC(=O)COc1nn(CC(=O)CC)c(-c2ccc(F)cc2)c1-c1ccc(S(C)(=O)=O)cc1 [Example 77, 1-[5-(4-Fluorophenyl)-4-(4-(methylsulphonyl)phenyl)-3-(2-oxobutoxy)-1H-pyrazol-1-yl]butan-2-one] | 56 to 58

Row | SMILES | melting point [°C]
18 | CC(C)(C)C(=O)COc1nn(CC(=O)C(C)(C)C)c(-c2ccc(S(C)(=O)=O)cc2)c1-c1ccc(F)cc1 [Example 25, 1-[3-(3,3-Dimethyl-2-oxobutoxy)-4-(4-fluorophenyl)-5-(4-(methylsulphonyl)phenyl)-1H-pyrazol-1-yl]-3,3-dimethylbutan-2-one] | 180 to 182
19 | Cc1oc2c(-c3ccc(F)cc3)c(-c3ccc(S(C)(=O)=O)cc3)nn2c1-c1ccccc1 [Example 41, 7-(4-Fluorophenyl)-2-methyl-6-(4-(methylsulphonyl)phenyl)-3-phenylpyrazolo[5,1-b][1,3]oxazole] | 234 to 236
20 | CC(C)(C)c1coc2c(-c3ccc(F)cc3)c(-c3ccc(S(C)(=O)=O)cc3)nn12 [Example 40, 3-(Tert-butyl)-7-(4-fluorophenyl)-6-(4-(methylsulphonyl)phenyl)pyrazolo[5,1-b][1,3]oxazole] | 181 to 182
21 | Cc1c(C#N)oc2c(-c3ccc(F)cc3)c(-c3ccc(S(C)(=O)=O)cc3)nn12 [Example 54, 2-Cyano-7-(4-fluorophenyl)-3-methyl-6-(4-(methylsulphonyl)phenyl)pyrazolo[5,1-b][1,3]oxazole] | 236 to 238
22 | CS(=O)(=O)c1ccc(-c2nn3c4c(oc3c2-c2ccc(F)cc2)CCCC4)cc1 [Example 42, 3-(4-Fluorophenyl)-2-(4-(methylsulphonyl)phenyl)-5,6,7,8-tetrahydropyrazolo[5,1-b][1,3]benzoxazole] | 183 to 184
23 | Cc1oc2c(-c3ccc(F)cc3)c(-c3ccc(S(C)(=O)=O)cc3)nn2c1-c1ccc(Cl)s1 [Example 45, 3-(5-Chloro-2-thienyl)-7-(4-fluorophenyl)-2-methyl-6-(4-(methylsulphonyl)phenyl)pyrazolo[5,1-b][1,3]oxazole] | 222 to 223
24 | Cc1oc2c(-c3ccc(F)cc3)c(-c3ccc(S(C)(=O)=O)cc3)nn2c1-c1cccs1 [Example 44, 7-(4-Fluorophenyl)-3-(2-thienyl)-2-methyl-6-(4-(methylsulphonyl)phenyl)pyrazolo[5,1-b][1,3]oxazole] | 240 to 241
25 | CS(=O)(=O)c1ccc(-c2nn3ccoc3c2-c2ccc(F)cc2)cc1 [Example 60, 7-(4-Fluorophenyl)-6-(4-(methylsulphonyl)phenyl)pyrazolo[5,1-b][1,3]oxazole] | 67 to 70
26 | CS(=O)(=O)c1ccc(-c2nn3c4c(oc3c2-c2ccc(F)cc2)CSCC4)cc1 [Example 53, 3-(4-Fluorophenyl)-2-(4-methylsulfonylphenyl)-7,8-dihydro-5H-pyrazolo[5,1-b]thiopyrano[4,3-d][1,3]oxazole] | 178 to 180
27 | CS(=O)(=O)c1ccc(-c2c(-c3ccc(F)cc3)c(=O)n3n2Cc2c(Cl)cccc2-3)cc1 [Example 65, 8-Chloro-2-(4-fluorophenyl)-1-(4-(methylsulphonyl)phenyl)-3H,9H-pyrazolo[1,2-a]indazol-3-one] | 237 to 240
28 | Cc1c(-c2ccc(F)cc2)oc2c(-c3ccc(S(C)(=O)=O)cc3)c(-c3ccc(F)cc3)nn12 [Example 74, 2,6-Bis(4-fluorophenyl)-3-methyl-7-(4-(methylsulphonyl)phenyl)pyrazolo[5,1-b][1,3]oxazole] | 289 to 291
29 | CS(=O)(=O)c1ccc(-c2nn3c(-c4ccccc4)coc3c2-c2ccc(F)cc2)cc1 [Example 37, 7-(4-Fluorophenyl)-6-(4-(methylsulphonyl)phenyl)-3-phenylpyrazolo[5,1-b][1,3]oxazole] | 151 to 154
30 | CC(=O)C(C)Oc1nn(C(C)C(C)=O)c(-c2ccc(S(C)(=O)=O)cc2)c1-c1ccc(F)cc1 (stereo not shown) [Example 17, 3-[4-(4-Fluorophenyl)-5-(4-methylsulfonylphenyl)-3-(1-methyl-2-oxopropoxy)-1H-pyrazol-1-yl]butan-2-one] | 127 to 129
31 | NS(=O)(=O)c1ccc(-c2nn3c(-c4ccc(F)cc4)coc3c2-c2ccc(F)cc2)cc1 [Example 57, 4-[3,7-Bis(4-fluorophenyl)pyrazolo[5,1-b][1,3]oxazol-6-yl]benzenesulphonamide] | 235 to 237
32 | CCc1coc2c(-c3ccc(S(C)(=O)=O)cc3)c(-c3ccc(F)cc3)nn12 [Example 76, 6-(4-Fluorophenyl)-7-(4-(methylsulphonyl)phenyl)-3-ethylpyrazolo[5,1-b][1,3]oxazole] | 205 to 208
33 | CS(=O)(=O)c1ccc(-c2c(-c3ccc(F)cc3)c(OCc3c(F)cccc3Cl)nn2Cc2c(F)cccc2Cl)cc1 [Example 64, 1-(2-Chloro-6-fluorobenzyl)-3-[(2-chloro-6-fluorobenzyl)oxy]-4-(4-fluorophenyl)-5-(4-(methylsulphonyl)phenyl)-1H-pyrazole] | 195 to 196
34 | CS(=O)(=O)c1ccc(-c2c(OCC(=O)c3ccc(F)cc3)nn(CC(=O)c3ccc(F)cc3)c2-c2ccc(F)cc2)cc1 [Example 75, 2-[5-(4-Fluorophenyl)-4-(4-(methylsulphonyl)phenyl)-3-(2-oxo-2-(4-fluorophenyl)ethoxy)-1H-pyrazol-1-yl]-1-(4-fluorophenyl)ethan-1-one] | 191 to 193
